Values joined by “and” are separate entries in the source; they are usually repeats but may differ in a detail not shown here. Equal values may be shown once. Inconclusive results and toxic doses are left out.
System: L1210 leukemia ip in BDF1 mice, survival T/C
Experiment: NCI In Vivo Anticancer Drug Screen. Data for tumor model L1210 Leukemia (intraperitoneal) in B6D2F1 (BDF1) mice
Conditions: endpoint: mean survival time, higher = longer survival
Outline: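 Tumor was transplanted into mice, which were then dosed with test compound or vehicle alone. Survival was recorded for each group, and the treated figure was expressed relative to the control figure.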

[1] = dose: 100.0 mg/kg/injection, schedule: Q01DX001 (ip), vehicle: carboxymethylcellulose (CMC)
[2] = dose: 200.0 mg/kg/injection, schedule: Q01DX001 (ip), vehicle: carboxymethylcellulose (CMC)
[3] = dose: 400.0 mg/kg/injection, schedule: Q01DX001 (ip), vehicle: carboxymethylcellulose (CMC)

With C/C(=N/N=C(N)N)C(C)C the T/C (dose: 15.0 mg/kg/injection, schedule: Q01DX Z (ip), vehicle: carboxymethylcellulose (CMC)) was 102 % of control, the T/C (dose: 27.0 mg/kg/injection, schedule: Q01DX Z (oral), vehicle: carboxymethylcellulose (CMC)) was 95 % of control and the T/C (dose: 30.0 mg/kg/injection, schedule: Q01DX Z (ip), vehicle: carboxymethylcellulose (CMC)) was 100 % of control. For the same molecule, the T/C (dose: 40.0 mg/kg/injection, schedule: Q01DX Z (oral), vehicle: carboxymethylcellulose (CMC)) was 98 % of control, the T/C (dose: 60.0 mg/kg/injection, schedule: Q01DX Z (ip), vehicle: carboxymethylcellulose (CMC)) was 92 % of control and the T/C (dose: 60.0 mg/kg/injection, schedule: Q01DX Z (oral), vehicle: carboxymethylcellulose (CMC)) was 106 % of control. The T/C (dose: 90.0 mg/kg/injection, schedule: Q01DX Z (oral), vehicle: carboxymethylcellulose (CMC)) was 98 % of control, the T/C (dose: 120.0 mg/kg/injection, schedule: Q01DX Z (oral), vehicle: carboxymethylcellulose (CMC)) was 101 % of control and the T/C (dose: 135.0 mg/kg/injection, schedule: Q01DX Z (oral), vehicle: carboxymethylcellulose (CMC)) was 97 % of control.

In the case of O=C1C=C(N2CC2)c2ccccc2C1=O, the T/C (dose: 2.5 mg/kg/injection, schedule: Q01DX009 (ip), vehicle: Klucel (hydroxypropylcellulose) (HPC)) was 101 % of control, the T/C (dose: 2.5 mg/kg/injection, schedule: Q04DX003 (ip), vehicle: Klucel (hydroxypropylcellulose) (HPC)) was 104 % of control and the T/C (dose: 5.0 mg/kg/injection, schedule: Q01DX009 (ip), vehicle: Klucel (hydroxypropylcellulose) (HPC)) was 96 % of control. For the same molecule, the T/C (dose: 5.0 mg/kg/injection, schedule: Q04DX003 (ip), vehicle: Klucel (hydroxypropylcellulose) (HPC)) was 104 % of control, the T/C (dose: 10.0 mg/kg/injection, schedule: Q01DX009 (ip), vehicle: Klucel (hydroxypropylcellulose) (HPC)) was 100 % of control and the T/C (dose: 10.0 mg/kg/injection, schedule: Q04DX003 (ip), vehicle: Klucel (hydroxypropylcellulose) (HPC)) was 102 % of control. For the same molecule, the T/C (dose: 20.0 mg/kg/injection, schedule: Q01DX001 (ip), vehicle: Klucel (hydroxypropylcellulose) (HPC)) was 105 % of control, the T/C (dose: 20.0 mg/kg/injection, schedule: Q01DX009 (ip), vehicle: Klucel (hydroxypropylcellulose) (HPC)) was 104 % of control and the T/C (dose: 20.0 mg/kg/injection, schedule: Q04DX003 (ip), vehicle: Klucel (hydroxypropylcellulose) (HPC)) was 109 % of control.

For COc1ccc(CCNC(=O)C2CCN(CCc3ccc(OC)c(OC)c3)CC2)cc1OC, the T/C [1] was 102 % of control, the T/C [2] was 96 % of control and the T/C [3] was 89 % of control.

With CC1COCC(C)N1C(=O)c1cccnc1 (stereo unspecified) the T/C (dose: 100.0 mg/kg/injection, schedule: Q01DX001 (ip), vehicle: saline) was 99 % of control, the T/C (dose: 100.0 mg/kg/injection, schedule: Q01DX009 (ip), vehicle: saline) was 101 % of control and 103 % of control and the T/C (dose: 100.0 mg/kg/injection, schedule: Q04DX002 (ip), vehicle: saline) was 96 % of control and 100 % of control. For the same molecule, the T/C (dose: 100.0 mg/kg/injection, schedule: Q04DX003 (ip), vehicle: saline) was 100 % of control, the T/C (dose: 200.0 mg/kg/injection, schedule: Q01DX001 (ip), vehicle: saline) was 99 % of control and the T/C (dose: 200.0 mg/kg/injection, schedule: Q01DX009 (ip), vehicle: saline) was 113 % of control and 114 % of control. The T/C (dose: 200.0 mg/kg/injection, schedule: Q04DX002 (ip), vehicle: saline) was 107 % of control and 110 % of control, the T/C (dose: 200.0 mg/kg/injection, schedule: Q04DX003 (ip), vehicle: saline) was 105 % of control and the T/C (dose: 400.0 mg/kg/injection, schedule: Q01DX001 (ip), vehicle: saline) was 101 % of control. For the same molecule, the T/C (dose: 400.0 mg/kg/injection, schedule: Q01DX009 (ip), vehicle: saline) was 103 % of control, the T/C (dose: 400.0 mg/kg/injection, schedule: Q04DX002 (ip), vehicle: saline) was 105 % of control and 110 % of control and the T/C (dose: 400.0 mg/kg/injection, schedule: Q04DX003 (ip), vehicle: saline) was 105 % of control.

With O=NN(CCCl)C(=O)NC1CCCCCCCCCCC1 the T/C (dose: 2.5 mg/kg/injection, schedule: Q01DX001 (ip), vehicle: carboxymethylcellulose (CMC)) was 114 % of control, the T/C (dose: 5.0 mg/kg/injection, schedule: Q01DX001 (ip), vehicle: carboxymethylcellulose (CMC)) was 120 % of control and the T/C (dose: 8.0 mg/kg/injection, schedule: Q01DX001 (ip), vehicle: carboxymethylcellulose (CMC)) was 123 % of control. The T/C (dose: 12.0 mg/kg/injection, schedule: Q01DX001 (ip), vehicle: carboxymethylcellulose (CMC)) was 121 % of control, the T/C (dose: 187.0 mg/kg/injection, schedule: Q01DX001 (ip), vehicle: carboxymethylcellulose (CMC)) was 166 % of control and the T/C (dose: 250.0 mg/kg/injection, schedule: Q01DX001 (ip), vehicle: carboxymethylcellulose (CMC)) was 153 % of control. The T/C (dose: 375.0 mg/kg/injection, schedule: Q01DX001 (ip), vehicle: carboxymethylcellulose (CMC)) was 160 % of control, the T/C (dose: 500.0 mg/kg/injection, schedule: Q01DX001 (ip), vehicle: carboxymethylcellulose (CMC)) was 174 % of control and the T/C (dose: 555.0 mg/kg/injection, schedule: Q01DX001 (ip), vehicle: other) was 172 % of control. For the same molecule, the T/C (dose: 596.0 mg/kg/injection, schedule: Q01DX001 (ip), vehicle: other) was 155 % of control, the T/C (dose: 750.0 mg/kg/injection, schedule: Q01DX001 (ip), vehicle: carboxymethylcellulose (CMC)) was 233 % of control and the T/C (dose: 838.0 mg/kg/injection, schedule: Q01DX001 (ip), vehicle: other) was 221 % of control. For the same molecule, the T/C (dose: 1000.0 mg/kg/injection, schedule: Q01DX001 (ip), vehicle: carboxymethylcellulose (CMC)) was 247 % of control, the T/C (dose: 1192.0 mg/kg/injection, schedule: Q01DX001 (ip), vehicle: other) was 185 % of control and the T/C (dose: 1250.0 mg/kg/injection, schedule: Q01DX001 (ip), vehicle: other) was 274 % of control. The T/C (dose: 1500.0 mg/kg/injection, schedule: Q01DX001 (ip), vehicle: other) was 167 % of control, the T/C (dose: 1875.0 mg/kg/injection, schedule: Q01DX001 (ip), vehicle: other) was 261 % of control and the T/C (dose: 2000.0 mg/kg/injection, schedule: Q01DX001 (ip), vehicle: other) was 91 % of control. The T/C (dose: 2384.0 mg/kg/injection, schedule: Q01DX001 (ip), vehicle: other) was 178 % of control.

With Cc1nc(N)[nH]c(=O)c1CCCNC(=O)c1ccc(CBr)cc1 the T/C (dose: 25.0 mg/kg/injection, schedule: Q01DX001 (ip), vehicle: saline with Tween-80) was 95 % of control, the T/C (dose: 50.0 mg/kg/injection, schedule: Q01DX001 (ip), vehicle: saline with Tween-80) was 88 % of control and the T/C (dose: 100.0 mg/kg/injection, schedule: Q01DX001 (ip), vehicle: saline with Tween-80) was 97 % of control.

With OCC(O)C(O)C(O)C(SCc1ccccc1)SCc1ccccc1 (stereo unspecified) the T/C (dose: 75.0 mg/kg/injection, schedule: Q04DX002 (ip), vehicle: saline with Tween-80) was 93 % of control, the T/C (dose: 150.0 mg/kg/injection, schedule: Q04DX002 (ip), vehicle: saline with Tween-80) was 117 % of control and the T/C (dose: 300.0 mg/kg/injection, schedule: Q04DX002 (ip), vehicle: saline with Tween-80) was 101 % of control.

For CCCCCC(=O)Nc1cccc(OC(=O)NC)c1, the T/C (dose: 100.0 mg/kg/injection, schedule: Q01DX009 (ip), vehicle: saline with Tween-80) was 98 % of control, the T/C (dose: 200.0 mg/kg/injection, schedule: Q01DX009 (ip), vehicle: saline with Tween-80) was 97 % of control and the T/C (dose: 400.0 mg/kg/injection, schedule: Q01DX009 (ip), vehicle: saline with Tween-80) was 89 % of control.

For Cc1cn(C2CC(O)C(CO)O2)c(=O)n(CCCc2ccccc2)c1=O (stereo unspecified), the T/C (dose: 50.0 mg/kg/injection, schedule: Q01DX001 (ip), vehicle: carboxymethylcellulose (CMC)) was 93 % of control, the T/C [1] was 90 % of control and the T/C [2] was 87 % of control. The T/C [3] was 90 % of control.

With CN(N=Nc1ccc(C(=N)N)cc1)C1CCCCC1 the T/C (dose: 9.5 mg/kg/injection, schedule: Q01DX001 (ip), vehicle: saline) was 95 % of control, the T/C (dose: 19.0 mg/kg/injection, schedule: Q01DX001 (ip), vehicle: saline) was 98 % of control and the T/C (dose: 38.0 mg/kg/injection, schedule: Q01DX001 (ip), vehicle: saline) was 95 % of control.

In the case of N#Cc1c(NN)n(C2OC(CO)C(O)C2O)c2ncncc12 (stereo unspecified), the T/C (dose: 100.0 mg/kg/injection, schedule: Q01DX005 (ip), vehicle: saline) was 106 % of control and the T/C (dose: 200.0 mg/kg/injection, schedule: Q01DX005 (ip), vehicle: saline) was 106 % of control.

In the case of CC1(C)Oc2ccccc2O1, the T/C (dose: 100.0 mg/kg/injection, schedule: Q04DX003 (ip), vehicle: saline with Tween-80) was 93 % of control.

With O=C(Nc1cccc(C(F)(F)F)c1)Nc1ccc([N+](=O)[O-])cc1Cl the T/C (dose: 100.0 mg/kg/injection, schedule: Q01DX009 (ip), vehicle: gum acacia) was 88 % of control, the T/C (dose: 200.0 mg/kg/injection, schedule: Q01DX009 (ip), vehicle: gum acacia) was 97 % of control and the T/C (dose: 400.0 mg/kg/injection, schedule: Q01DX009 (ip), vehicle: gum acacia) was 96 % of control.

With CN(C)C(C)(C)CCCNc1ccnc2cc(Cl)ccc12 the T/C (dose: 75.0 mg/kg/injection, schedule: Q01DX001 (ip), vehicle: carboxymethylcellulose (CMC)) was 100 % of control and the T/C (dose: 150.0 mg/kg/injection, schedule: Q01DX001 (ip), vehicle: carboxymethylcellulose (CMC)) was 100 % of control.
